Reference: patent US5281603A, “Angiotensin II receptor blocking 2,3,6 substituted quinazolinones” (American Cyanamid Company, priority 1993, dated 1994)
Where “and” joins values, the source holds several entries; their conditions need not be identical. Equal entries are not always repeated.

System: Angiotensin II vasopressor response
Assay: AII challenge: antagonism of angiotensin II vasopressor response in conscious spontaneously hypertensive rats
Type: in vivo, rat (Male Okamoto-Aoki SHR)
Conditions: 10 mg/kg I.V.; for % Inhibition / Average Change: SHR n=2; for Response After AII / Change / Control Before AII: individual SHR
Text: By administering a compound of this invention to a rat, and then challenging with angiotensin II, a blockage of the vasopressor response is realized.
Conscious Male Okamoto-Aoki SHR, 16-20 weeks old, weighing approximately 330 g are purchased from Charles River Labs (Wilmington, Mass.). Conscious rats are restrained in a supine position with elastic tape. The area at the base of the tail is locally anesthetized by subcutaneous infiltration with 2% procaine. The ventral caudal artery and vein are isolated, and a cannula made of polyethylene (PE) 10-20 tubing (fused together by heat) is passed into the lower abdominal aorta and vena cava, respectively. The cannula is secured, heparinized (1,000 I.U./ml), sealed and the wound is closed. The animals are placed in plastic restraining cages in an upright position. The cannula is attached to a Statham P23Db pressure transducer, and pulsatile blood pressure is recorded to 10-15 minutes with a Gould Brush recorder. (Chan et al., (Drug Development Res., 18:75-94, 1989).
Angiotensin II (human sequence, Sigma Chem. Co., St. […] Then a test compound, vehicle or a known angiotensin II antagonist is administered i.v., i.p. or orally to each set of rats. The two doses of angiotensin II are given to each rat again at 30, 60, 90, 120, 180, 240 and 300 minutes post dosing the compound or vehicle. The vasopressor response of angiotensin II is measured for the increase in systolic blood pressure in mmHg. The percentage of antagonism or blockade of the vasopressor response of angiotensin II by a compound is calculated using the vasopressor response (increase in systolic blood pressure) of angiotensin II of each rat predosing the compound as 100%. A compound is considered active if at 30 mg/kg i.v. it antagonized at least 50% of the response.

[1] = AII 0.05 mcg/kg IV, 30 min post dose
[2] = AII 0.05 mcg/kg IV, 60 min post dose
[3] = AII 0.05 mcg/kg IV, 90 min post dose
[4] = AII 0.05 mcg/kg IV, 120 min post dose
[5] = AII 0.05 mcg/kg IV, 180 min post dose
[6] = AII 0.05 mcg/kg IV, 240 min post dose
[7] = AII 0.05 mcg/kg IV, 300 min post dose
[8] = AII 0.1 mcg/kg IV, 30 min post dose
[9] = AII 0.1 mcg/kg IV, 60 min post dose
[10] = AII 0.1 mcg/kg IV, 90 min post dose
[11] = AII 0.1 mcg/kg IV, 120 min post dose
[12] = AII 0.1 mcg/kg IV, 180 min post dose
[13] = AII 0.1 mcg/kg IV, 240 min post dose
[14] = AII 0.1 mcg/kg IV, 300 min post dose
[15] = AII 0.05 mcg/kg IV, 30 min post dose, 10 mg/kg
[16] = AII 0.05 mcg/kg IV, 60 min post dose, 10 mg/kg
[17] = AII 0.05 mcg/kg IV, 90 min post dose, 10 mg/kg
[18] = AII 0.05 mcg/kg IV, 120 min post dose, 10 mg/kg
[19] = AII 0.05 mcg/kg IV, 180 min post dose, 10 mg/kg
[20] = AII 0.05 mcg/kg IV, 240 min post dose, 10 mg/kg
[21] = AII 0.05 mcg/kg IV, 300 min post dose, 10 mg/kg
[22] = AII 0.1 mcg/kg IV, 30 min post dose, 10 mg/kg
[23] = AII 0.1 mcg/kg IV, 60 min post dose, 10 mg/kg
[24] = AII 0.1 mcg/kg IV, 90 min post dose, 10 mg/kg
[25] = AII 0.1 mcg/kg IV, 120 min post dose, 10 mg/kg
[26] = AII 0.1 mcg/kg IV, 180 min post dose, 10 mg/kg
[27] = AII 0.1 mcg/kg IV, 240 min post dose, 10 mg/kg
[28] = AII 0.1 mcg/kg IV, 300 min post dose, 10 mg/kg

## CCCCc1nc2ccc(C3=NN[C@H]4C(=O)N(C)C(=O)[C@@H]34)cc2c(=O)n1Cc1ccc(-c2ccccc2-c2nnn[nH]2)cc1 (relative stereo) [Example 7]
[1]
  % Inhibition: 57%
  Average Change: 20 mmHg
  Response After AII: 240 mmHg
[2]
  % Inhibition: 57%
  Average Change: 20 mmHg
[3]
  % Inhibition: 57%
  Average Change: 20 mmHg
  Response After AII: 230 mmHg
[4]
  % Inhibition: 62%
  Average Change: 17.5 mmHg
  Response After AII: 160 mmHg
[5]
  % Inhibition: 67%
  Average Change: 15 mmHg
[6]
  % Inhibition: 62%
  Average Change: 17.5 mmHg
[7]
  % Inhibition: 24%
  Average Change: 35 mmHg
  Change: 35 mmHg
[8]
  % Inhibition: 50%
  Average Change: 27.5 mmHg
[9]
  % Inhibition: 58%
  Average Change: 23 mmHg
[10]
  % Inhibition: 59%
  Average Change: 22.5 mmHg
[11]
  % Inhibition: 67%
  Average Change: 18 mmHg
  Response After AII: 160 mmHg
[12]
  % Inhibition: 50%
  Average Change: 27.5 mmHg
[13]
  % Inhibition: 55%
  Average Change: 25 mmHg
[14]
  % Inhibition: 54%
  Average Change: 25.5 mmHg
[15]
  Change: 15 mmHg and 25 mmHg
  Control Before AII: 150 mmHg and 215 mmHg
  Response After AII: 165 mmHg
[16]
  Change: 15 mmHg and 25 mmHg
  Control Before AII: 145 mmHg and 215 mmHg
  Response After AII: 160 mmHg and 240 mmHg
[17]
  Change: 40 mmHg and 0 mmHg
  Control Before AII: 135 mmHg and 230 mmHg
  Response After AII: 175 mmHg
[18]
  Change: 20 mmHg and 15 mmHg
  Control Before AII: 140 mmHg and 200 mmHg
  Response After AII: 215 mmHg
[19]
  Change: 25 mmHg and 5 mmHg
  Control Before AII: 140 mmHg and 205 mmHg
  Response After AII: 165 mmHg and 210 mmHg
[20]
  Change: 25 mmHg and 10 mmHg
  Control Before AII: 135 mmHg and 190 mmHg
  Response After AII: 160 mmHg and 200 mmHg
[21]
  Control Before AII: 140 mmHg and 190 mmHg
  Response After AII: 175 mmHg and 225 mmHg
[22]
  Change: 20 mmHg and 35 mmHg
  Control Before AII: 140 mmHg and 215 mmHg
  Response After AII: 160 mmHg and 250 mmHg
[23]
  Change: 15 mmHg and 31 mmHg
  Control Before AII: 145 mmHg and 224 mmHg
  Response After AII: 160 mmHg and 255 mmHg
[24]
  Change: 25 mmHg and 20 mmHg
  Control Before AII: 140 mmHg and 215 mmHg
  Response After AII: 165 mmHg and 235 mmHg
[25]
  Change: 25 mmHg and 11 mmHg
  Control Before AII: 135 mmHg and 214 mmHg
  Response After AII: 225 mmHg
[26]
  Change: 35 mmHg and 20 mmHg
  Control Before AII: 140 mmHg and 195 mmHg
  Response After AII: 175 mmHg and 215 mmHg
[27]
  Change: 35 mmHg and 15 mmHg
  Control Before AII: 140 mmHg and 190 mmHg
  Response After AII: 175 mmHg and 205 mmHg
[28]
  Change: 40 mmHg and 11 mmHg
  Control Before AII: 140 mmHg and 205 mmHg
  Response After AII: 180 mmHg and 216 mmHg
